From the NIST ThermoML archive (doi:10.1021/je900916e)

Assay: cn = amount concentration of the nth substance listed, in mol/dm3
Conditions: 101 kPa, Liquid, Advanced Condctivity Orion 162A

N.O=C(O)C(F)(F)C(F)(F)C(F)(F)C(F)(F)C(F)(F)C(F)(F)C(F)(F)F [ammonium perfluorooctanoate] + O
Conditions	electrical conductivity [S/m]
288.15 K, c1 = 0.002632	0.019
288.15 K, c1 = 0.005195	0.0351
288.15 K, c1 = 0.007692	0.051
288.15 K, c1 = 0.01013	0.0665
288.15 K, c1 = 0.0125	0.0805
288.15 K, c1 = 0.01481	0.0943
288.15 K, c1 = 0.01707	0.1074
288.15 K, c1 = 0.01928	0.1198
288.15 K, c1 = 0.02143	0.1318
288.15 K, c1 = 0.02353	0.1429
288.15 K, c1 = 0.02558	0.1533
288.15 K, c1 = 0.02759	0.163
288.15 K, c1 = 0.02955	0.1691
288.15 K, c1 = 0.03146	0.174
288.15 K, c1 = 0.03333	0.1785
288.15 K, c1 = 0.03516	0.1828
288.15 K, c1 = 0.03696	0.187
288.15 K, c1 = 0.03957	0.1926
288.15 K, c1 = 0.04211	0.1982
288.15 K, c1 = 0.04456	0.2036
288.15 K, c1 = 0.04694	0.209
288.15 K, c1 = 0.05	0.2155
288.15 K, c1 = 0.05294	0.2216
288.15 K, c1 = 0.05577	0.2275
293.15 K, c1 = 0.002632	0.021
293.15 K, c1 = 0.005195	0.0402
293.15 K, c1 = 0.007692	0.0582
293.15 K, c1 = 0.01013	0.0753
293.15 K, c1 = 0.0125	0.092
293.15 K, c1 = 0.01481	0.1078
293.15 K, c1 = 0.01707	0.1224
293.15 K, c1 = 0.01928	0.1364
293.15 K, c1 = 0.02143	0.1498
293.15 K, c1 = 0.02353	0.1625
293.15 K, c1 = 0.02558	0.1735
293.15 K, c1 = 0.02759	0.1815
293.15 K, c1 = 0.02955	0.1888
293.15 K, c1 = 0.03146	0.1942
293.15 K, c1 = 0.03333	0.1995
293.15 K, c1 = 0.03516	0.2045
293.15 K, c1 = 0.03696	0.209
293.15 K, c1 = 0.03957	0.216
293.15 K, c1 = 0.04211	0.222
293.15 K, c1 = 0.04536	0.231
293.15 K, c1 = 0.04848	0.239
293.15 K, c1 = 0.05149	0.247
293.15 K, c1 = 0.05437	0.2545
298.15 K, c1 = 0.002817	0.0241
298.15 K, c1 = 0.005556	0.0457
298.15 K, c1 = 0.008219	0.0665
298.15 K, c1 = 0.01081	0.0848
298.15 K, c1 = 0.01333	0.1033
298.15 K, c1 = 0.01579	0.1221
298.15 K, c1 = 0.01818	0.1411
298.15 K, c1 = 0.02051	0.1577
298.15 K, c1 = 0.02278	0.1735
298.15 K, c1 = 0.025	0.1884
298.15 K, c1 = 0.02716	0.199
298.15 K, c1 = 0.02927	0.2067
298.15 K, c1 = 0.03132	0.2144
298.15 K, c1 = 0.03333	0.2207
298.15 K, c1 = 0.03529	0.2269
298.15 K, c1 = 0.03721	0.2337
298.15 K, c1 = 0.03908	0.2394
298.15 K, c1 = 0.04091	0.2452
298.15 K, c1 = 0.0427	0.251
298.15 K, c1 = 0.04444	0.2558
298.15 K, c1 = 0.04699	0.2635
298.15 K, c1 = 0.04946	0.2721
298.15 K, c1 = 0.05185	0.2798
298.15 K, c1 = 0.05417	0.2856
298.15 K, c1 = 0.05641	0.2923
303.15 K, c1 = 0.002632	0.0264
303.15 K, c1 = 0.005195	0.0503
303.15 K, c1 = 0.007692	0.0726
303.15 K, c1 = 0.01013	0.0937
303.15 K, c1 = 0.0125	0.1137
303.15 K, c1 = 0.01481	0.1325
303.15 K, c1 = 0.01707	0.1505
303.15 K, c1 = 0.01928	0.1679
303.15 K, c1 = 0.02143	0.1833
303.15 K, c1 = 0.02353	0.1983
303.15 K, c1 = 0.02558	0.2125
303.15 K, c1 = 0.02759	0.221
303.15 K, c1 = 0.02955	0.229
303.15 K, c1 = 0.03146	0.236
303.15 K, c1 = 0.03333	0.243
303.15 K, c1 = 0.03516	0.2495
303.15 K, c1 = 0.03696	0.256
303.15 K, c1 = 0.03957	0.2645
303.15 K, c1 = 0.04211	0.273
303.15 K, c1 = 0.04456	0.281
303.15 K, c1 = 0.04694	0.289
303.15 K, c1 = 0.05	0.299
303.15 K, c1 = 0.05294	0.309
303.15 K, c1 = 0.05577	0.3185
308.15 K, c1 = 0.002632	0.0291
308.15 K, c1 = 0.005195	0.0556
308.15 K, c1 = 0.007692	0.0802
308.15 K, c1 = 0.01013	0.1034
308.15 K, c1 = 0.0125	0.1244
308.15 K, c1 = 0.01481	0.1452
308.15 K, c1 = 0.01707	0.165
308.15 K, c1 = 0.01928	0.1844
308.15 K, c1 = 0.02143	0.203
308.15 K, c1 = 0.02353	0.22
308.15 K, c1 = 0.02558	0.232
308.15 K, c1 = 0.02759	0.242
308.15 K, c1 = 0.02955	0.251
308.15 K, c1 = 0.03146	0.259
308.15 K, c1 = 0.03333	0.267
308.15 K, c1 = 0.03516	0.274
308.15 K, c1 = 0.03696	0.281
308.15 K, c1 = 0.03957	0.291
308.15 K, c1 = 0.04211	0.301
308.15 K, c1 = 0.04456	0.3105
308.15 K, c1 = 0.04772	0.322
308.15 K, c1 = 0.05075	0.333
308.15 K, c1 = 0.05366	0.344
313.15 K, c1 = 0.002632	0.0318
313.15 K, c1 = 0.005195	0.0606
313.15 K, c1 = 0.007692	0.0875
313.15 K, c1 = 0.01013	0.1126
313.15 K, c1 = 0.0125	0.1364
313.15 K, c1 = 0.01481	0.1592
313.15 K, c1 = 0.01707	0.1811
313.15 K, c1 = 0.01928	0.2025
313.15 K, c1 = 0.02143	0.223
313.15 K, c1 = 0.02353	0.241
313.15 K, c1 = 0.02558	0.256
313.15 K, c1 = 0.02759	0.267
313.15 K, c1 = 0.02955	0.277
313.15 K, c1 = 0.03146	0.286
313.15 K, c1 = 0.03333	0.295
313.15 K, c1 = 0.03516	0.303
313.15 K, c1 = 0.03696	0.311
313.15 K, c1 = 0.03957	0.322
313.15 K, c1 = 0.04211	0.333
313.15 K, c1 = 0.04456	0.344
313.15 K, c1 = 0.04694	0.354
313.15 K, c1 = 0.05	0.367
313.15 K, c1 = 0.05294	0.38
318.15 K, c1 = 0.002632	0.0344
318.15 K, c1 = 0.005195	0.0656
318.15 K, c1 = 0.007692	0.0948
318.15 K, c1 = 0.01013	0.1225
318.15 K, c1 = 0.0125	0.1474
318.15 K, c1 = 0.01481	0.1726
318.15 K, c1 = 0.01707	0.1968
318.15 K, c1 = 0.01928	0.219
318.15 K, c1 = 0.02143	0.241
318.15 K, c1 = 0.02353	0.262
318.15 K, c1 = 0.02558	0.279
318.15 K, c1 = 0.02759	0.292
318.15 K, c1 = 0.02955	0.303
318.15 K, c1 = 0.03146	0.313
318.15 K, c1 = 0.03333	0.323
318.15 K, c1 = 0.03516	0.3325
318.15 K, c1 = 0.03696	0.3415
318.15 K, c1 = 0.03957	0.3535
318.15 K, c1 = 0.04211	0.3655
318.15 K, c1 = 0.04456	0.377
318.15 K, c1 = 0.04772	0.3915
318.15 K, c1 = 0.05074	0.4055
318.15 K, c1 = 0.05366	0.419
